What is called IC50 is the point on the concentration scale where inhibition reaches its midpoint. The low end stands for higher potency, the high end for lower potency. In general, inhibition refers to how much of the control response was suppressed.

This experiment has as its target 11β-HSD1 (Homo sapiens, UniProt P28845). Briefly: biochemical. Conditions: for IC50: IC50 Range, Biological Test Example 1, microsomes from CHO cells overexpressing human 11β-HSD1; for inhibition at 0.1 µM: read-out: Average % inhibition at 100 nM, Biological Test Example 1, 100 nM.

Chain of 11β-HSD1 (P28845 whole entry): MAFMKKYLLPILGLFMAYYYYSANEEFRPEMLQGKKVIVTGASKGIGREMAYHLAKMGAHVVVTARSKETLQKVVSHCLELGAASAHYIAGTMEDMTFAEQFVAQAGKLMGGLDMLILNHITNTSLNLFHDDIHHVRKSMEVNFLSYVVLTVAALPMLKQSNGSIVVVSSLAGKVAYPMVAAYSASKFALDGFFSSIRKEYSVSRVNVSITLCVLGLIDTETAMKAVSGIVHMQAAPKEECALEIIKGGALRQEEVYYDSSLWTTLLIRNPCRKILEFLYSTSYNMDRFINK

For the compound `C[C@@H](c1ccc(F)cc1)N1CC[C@](CCO)(c2ccc(F)cc2)OC1=O` [EXAMPLE 406, (S)-6-(4-fluorophenyl)-3-((S)-1-(4-fluorophenyl)ethyl)-6-(2-hydroxyethyl)-1,3-oxazinan-2-one], the IC50 was < 100 nM and the inhibition at 0.1 µM came out at 86.4%.

With `C[C@@H](c1ccc(F)cc1)N1CC[C@](CC(C)(C)O)(c2ccc(F)cc2)OC1=O` [EXAMPLE 407, (S)-6-(4-fluorophenyl)-3-((S)-1-(4-fluorophenyl)ethyl)-6-(2-hydroxy-2-methylpropyl)-1,3-oxazinan-2-one], the IC50 is < 100 nM and the inhibition at 0.1 µM amounted to 94.7%.

Regarding `CC(O)C[C@]1(c2ccc(F)cc2)CCN([C@@H](C)c2ccc(F)cc2)C(=O)O1` (stereo partly drawn) [EXAMPLE 408, (6S)-6-(4-fluorophenyl)-3-((S)-1-(4-fluorophenyl)ethyl)-6-(2-hydroxypropyl)-1,3-oxazinan-2-one], the IC50 was < 100 nM and the inhibition at 0.1 µM came to 90.2%.

With `C[C@@H](c1ccc(F)cc1)N1CC[C@](CCCNS(C)(=O)=O)(c2ccc(F)cc2)OC1=O` [EXAMPLE 409, N-(3-((R)-6-(4-fluorophenyl)-3-((S)-1-(4-fluorophenyl)ethyl)-2-oxo-1,3-oxazinan-6-yl)propyl)methanesulfonamide], the IC50 is < 100 nM and the inhibition at 0.1 µM came out at 91.6%.

As for `C[C@@H](c1ccc(F)cc1)N1CC[C@](CCC(C)(C)O)(c2ccc(F)cc2)OC1=O` [EXAMPLE 410, (R)-6-(4-fluorophenyl)-3-((S)-1-(4-fluorophenyl)ethyl)-6-(3-hydroxy-3-methylbutyl)-1,3-oxazinan-2-one], the IC50 was < 100 nM and the inhibition at 0.1 µM stood at 52%.

Consider `C[C@@H](c1ccc(F)cc1)N1CC[C@](CCO)(c2ccccc2)OC1=O` [EXAMPLE 412, (S)-3-((S)-1-(4-fluorophenyl)ethyl)-6-(2-hydroxyethyl)-6-phenyl-1,3-oxazinan-2-one], for which the IC50 is < 100 nM and the inhibition at 0.1 µM was 94.7%.

Regarding `C[C@@H](c1ccc(F)cc1)N1CC[C@](CC(C)(C)O)(c2ccccc2)OC1=O` [EXAMPLE 413, (S)-3-((S)-1-(4-fluorophenyl)ethyl)-6-(2-hydroxy-2-methylpropyl)-6-phenyl-1,3-oxazinan-2-one], the IC50 was < 100 nM and the inhibition at 0.1 µM amounted to 95.3%.

As to `C[C@@H](c1ccc(F)cc1)N1CC[C@](CCCO)(c2ccccc2)OC1=O` [EXAMPLE 414, (R)-3-((S)-1-(4-fluorophenyl)ethyl)-6-(3-hydroxypropyl)-6-phenyl-1,3-oxazinan-2-one], the IC50 was < 100 nM and the inhibition at 0.1 µM was found to be 94.4%.

Consider `C[C@@H](c1ccc(F)cc1)N1CC[C@](CCC(N)=O)(c2ccccc2)OC1=O` [EXAMPLE 415, 3-((R)-3-((S)-1-(4-fluorophenyl)ethyl)-2-oxo-6-phenyl-1,3-oxazinan-6-yl)propanamide], for which the IC50 was < 100 nM and the inhibition at 0.1 µM came to 87.6%.

Take `C[C@@H](c1ccc(F)cc1)N1CC[C@](CCC(C)(C)O)(c2ccccc2)OC1=O` [EXAMPLE 416, (R)-3-((S)-1-(4-fluorophenyl)ethyl)-6-(3-hydroxy-3-methylbutyl)-6-phenyl-1,3-oxazinan-2-one]: the IC50 was < 100 nM and the inhibition at 0.1 µM amounted to 55.1%.

On to `Cc1ccc([C@H](C)N2CC[C@](CC(C)(C)O)(c3ccc(F)cc3)OC2=O)cc1` [EXAMPLE 417, (S)-6-(4-fluorophenyl)-6-(2-hydroxy-2-methylpropyl)-3-((S)-1-p-tolylethyl)-1,3-oxazinan-2-one], for which the IC50 was < 100 nM and the inhibition at 0.1 µM turned out to be 97.1%.

As for `Cc1ccc([C@H](C)N2CC[C@](CCCO)(c3ccc(F)cc3)OC2=O)cc1` [EXAMPLE 418, (R)-6-(4-fluorophenyl)-6-(3-hydroxypropyl)-3-((S)-1-p-tolylethyl)-1,3-oxazinan-2-one], the IC50 is < 100 nM and the inhibition at 0.1 µM came out at 99.2%.

Regarding `Cc1ccc([C@H](C)N2CC[C@](CCCNS(C)(=O)=O)(c3ccc(F)cc3)OC2=O)cc1` [EXAMPLE 420, N-(3-((R)-6-(4-fluorophenyl)-2-oxo-3-((S)-1-p-tolylethyl)-1,3-oxazinan-6-yl)propyl)methanesulfonamide], the IC50 is < 100 nM and the inhibition at 0.1 µM is 97.3%.

For the compound `Cc1ccc([C@H](C)N2CC[C@](CCO)(c3ccc(F)cc3)OC2=O)cc1` [EXAMPLE 421, (S)-6-(4-fluorophenyl)-6-(2-hydroxyethyl)-3-((S)-1-p-tolylethyl)-1,3-oxazinan-2-one], the IC50 was < 100 nM and the inhibition at 0.1 µM worked out at 96.1%.

For the compound `Cc1ccc([C@H](C)N2CC[C@](CC(C)(C)O)(c3ccccc3)OC2=O)cc1` [EXAMPLE 422, (S)-6-(2-hydroxy-2-methylpropyl)-6-phenyl-3-((S)-1-p-tolylethyl)-1,3-oxazinan-2-one], the IC50 is < 100 nM and the inhibition at 0.1 µM came to 100%.

As to `Cc1ccc([C@H](C)N2CC[C@](CCCO)(c3ccccc3)OC2=O)cc1` [EXAMPLE 423, (R)-6-(3-hydroxypropyl)-6-phenyl-3-((S)-1-p-tolylethyl)-1,3-oxazinan-2-one], the IC50 was < 100 nM and the inhibition at 0.1 µM stood at 97.6%.

For `Cc1ccc([C@H](C)N2CC[C@](CCC(N)=O)(c3ccccc3)OC2=O)cc1` [EXAMPLE 424, 3-((R)-2-oxo-6-phenyl-3-((S)-1-p-tolylethyl)-1,3-oxazinan-6-yl)propanamide], the IC50 is < 100 nM and the inhibition at 0.1 µM amounted to 97%.

Consider `COc1ccc([C@H](C)N2CC[C@](CC(C)(C)O)(c3ccc(F)cc3)OC2=O)cc1` [EXAMPLE 425, (S)-6-(4-fluorophenyl)-6-(2-hydroxy-2-methylpropyl)-3-((S)-1-(4-methoxyphenyl)ethyl)-1,3-oxazinan-2-one], for which the IC50 is < 100 nM and the inhibition at 0.1 µM came to 96.2%.

In the case of `COc1ccc([C@H](C)N2CC[C@](CCC(C)(C)O)(c3ccc(F)cc3)OC2=O)cc1` [EXAMPLE 426, (R)-6-(4-fluorophenyl)-6-(3-hydroxy-3-methylbutyl)-3-((S)-1-(4-methoxyphenyl)ethyl)-1,3-oxazinan-2-one], the IC50 was < 100 nM and the inhibition at 0.1 µM was 82.5%.

Consider `COc1ccc([C@H](C)N2CC[C@](CC(C)(C)O)(c3ccccc3)OC2=O)cc1` [EXAMPLE 427, (S)-6-(2-hydroxy-2-methylpropyl)-3-((S)-1-(4-methoxyphenyl)ethyl)-6-phenyl-1,3-oxazinan-2-one], for which the IC50 is < 100 nM and the inhibition at 0.1 µM came to 97.8%.

As to `COc1ccc([C@H](C)N2CC[C@](CCC(C)(C)O)(c3ccccc3)OC2=O)cc1` [EXAMPLE 428, (R)-6-(3-hydroxy-3-methylbutyl)-3-((S)-1-(4-methoxyphenyl)ethyl)-6-phenyl-1,3-oxazinan-2-one], the IC50 is < 100 nM and the inhibition at 0.1 µM came to 82%.

For the compound `Cc1cc(-c2ccc([C@H](C)N3CC[C@](CC(C)(C)O)(c4ccc(F)cc4)OC3=O)cc2)ccn1` [EXAMPLE 449, (S)-6-(4-fluorophenyl)-6-(2-hydroxy-2-methylpropyl)-3-((S)-1-(4-(2-methylpyridin-4-yl)phenyl)ethyl)-1,3-oxazinan-2-one], where the note is “read-out: Average % inhibition at 111.1 nM, Biological Test Example 1, 111.1 nM”, the inhibition at 0.1111 µM is 99.4%.

For `C[C@@H](c1ccc(-c2ccc(F)cc2)cc1)N1CC[C@](CCN2CCC2)(c2ccc(F)cc2)OC1=O` [EXAMPLE 462, (R)-6-(2-(azetidin-1-yl)ethyl)-3-((S)-1-(4′-fluorobiphenyl-4-yl)ethyl)-6-(4-fluorophenyl)-1,3-oxazinan-2-one], the IC50 was < 100 nM and the inhibition at 0.1 µM was determined as 72.3%.

In the case of `C[C@@H](c1ccc(-c2ccc(F)cc2)cc1)N1CC[C@](CCNCCF)(c2ccc(F)cc2)OC1=O` [EXAMPLE 463, (R)-3-((S)-1-(4′-fluorobiphenyl-4-yl)ethyl)-6-(2-(2-fluoroethylamino)ethyl)-6-(4-fluorophenyl)-1,3-oxazinan-2-one], the IC50 was < 100 nM and the inhibition at 0.1 µM was 81.3%.

Consider `C[C@@H](c1ccc(-c2ccc(F)cc2)cc1)N1CC[C@](CCN2CCCC2)(c2ccc(F)cc2)OC1=O` [EXAMPLE 464, (R)-3-((S)-1-(4′-fluorobiphenyl-4-yl)ethyl)-6-(4-fluorophenyl)-6-(2-(pyrrolidin-1-yl)ethyl)-1,3-oxazinan-2-one], for which the IC50 was < 100 nM and the inhibition at 0.1 µM was determined as 80.2%.

As for `C[C@@H](c1ccc(-c2ccc(F)cc2)cc1)N1CC[C@](CCN2CC[C@H](F)C2)(c2ccc(F)cc2)OC1=O` [EXAMPLE 465, (R)-3-((S)-1-(4′-fluorobiphenyl-4-yl)ethyl)-6-(4-fluorophenyl)-6-(2-((S)-3-fluoropyrrolidin-1-yl)ethyl)-1,3-oxazinan-2-one], the IC50 was < 100 nM and the inhibition at 0.1 µM is 65%.

Consider `C[C@@H](c1ccc(-c2ccc(F)cc2)cc1)N1CC[C@](CCN2CC[C@@H](F)C2)(c2ccc(F)cc2)OC1=O` [EXAMPLE 466, (R)-3-((S)-1-(4′-fluorobiphenyl-4-yl)ethyl)-6-(4-fluorophenyl)-6-(2-((R)-3-fluoropyrrolidin-1-yl)ethyl)-1,3-oxazinan-2-one], for which the IC50 is < 100 nM and the inhibition at 0.1 µM came out at 55.3%.

Consider `C[C@@H](c1ccc(-c2ccc(F)cc2)cc1)N1CC[C@](CCN2CCNC(=O)C2)(c2ccc(F)cc2)OC1=O` [EXAMPLE 467, (R)-3-((S)-1-(4′-fluorobiphenyl-4-yl)ethyl)-6-(4-fluorophenyl)-6-(2-(3-oxopiperazin-1-yl)ethyl)-1,3-oxazinan-2-one], for which the IC50 was < 100 nM and the inhibition at 0.1 µM is 81.2%.

Take `C[C@@H](c1ccc(-c2ccccc2)cc1)N1CC[C@](CCO)(c2ccccc2)OC1=O` [EXAMPLE 489, (S)-3-((S)-1-(biphenyl-4-yl)ethyl)-6-(2-hydroxyethyl)-6-phenyl-1,3-oxazinan-2-one]: the IC50 is < 100 nM and the inhibition at 0.1 µM was 98.3%.

Take `C[C@@H](c1ccc(-c2ccccc2)cc1)N1CC[C@](CCCO)(c2ccccc2)OC1=O` [EXAMPLE 490, (R)-3-((S)-1-(biphenyl-4-yl)ethyl)-6-(3-hydroxypropyl)-6-phenyl-1,3-oxazinan-2-one]: the IC50 is < 100 nM and the inhibition at 0.1 µM stood at 94.8%.

Source of the values: patent publication US8575156B2, “Cyclic inhibitors of 11β-hydroxysteroid dehydrogenase 1” (Vitae Pharmaceuticals, Inc., priority 2007, dated 2013).
